Results reported in patent US20030203373A1 (priority 2002, published 2003).
Several values for one entry are separate records, joined by “and”; a condition that tells them apart may be missing. Equal values may be shown once. Entries after “also recorded” stand apart in the source; their conditions may differ.

Test system: normotensive Wister rats
Experiment: Bradykinin-potentiating effect on blood pressure in anaesthetized normotensive rats
Assay type: in vivo, rat
Procedure: In the in vivo experiments with normotensive rats the animals were previously anaesthetized and after blood pressure stabilization treated with a constant amount of bradykinin. Subsequently, either Captopril or human BPP were administered, again followed by a constant amount of bradykinin. Afterwards the maximum blood pressure drop was determined and, on the basis of bradykinin as a factor 1, the potentiating factor was determined. In the same way, the systolic and diastolic blood pressure, the percentage middle pressure decrease and the time required to come back to the baseline values were measured (see tables 4a to 4j). A detailed experimental description is given below.
2. Measurement of Blood Pressure in Normotensive and Hypertensive Rats
The trials were conducted on female anaesthetized normotensive Wister rats with weight ranging from 210 to 240 g.
The peptide pANP48-57 used for the in vivo assays was synthesized by Biosynthan (Berlin) with a HPLC-determined purity of 98%.
Anaesthetizing was performed by i.p.-administration of 1 ml/kg Ketavit (100 mg/ml)+Rampun (2%).
In order to conduct the blood pressure measurement, a polyethylene catheter was introduced into the Aorta femuralis and connected with a pressure transducer. A Statham-P23A pressure-transducer was linked to a Gould Polygraph and used to determine the arterial blood pressure. A Hg-manometer was used to calibrate the system.
All substances were dissolved and diluted in a physiological sodium chloride solution and introduced into the Vena jugularis via a catheter.
After stabilization of blood pressure (after about 10 minutes) […] body weight of a 2,5 μM bradykinin-solution (Sigma) was administered.
The middle pressure was determined from the measured diastolic (pd) and systolic (ps) blood pressure by using the following formula: pm=(ps−Pd)×0,42+pd.

[1] = S605 1 × 10^−3 M + Bradykinin 2.5 × 10^−6 M
[2] = S605 1 × 10^−3 M + Bradykinin 2.5 × 10^−6 M, individual female rat
[3] = S605 1.5 × 10^−3 M + Bradykinin 2.5 × 10^−6 M
[4] = S605 1.5 × 10^−3 M + Bradykinin 2.5 × 10^−6 M, Rat (female) 216 g, Table 4j
[5] = S605 1.5 × 10^−3 M + Bradykinin 2.5 × 10^−6 M, individual female rat
[6] = S605 1.5 × 10^−4 M + Bradykinin 2.5 × 10^−6 M
[7] = S605 1.5 × 10^−4 M + Bradykinin 2.5 × 10^−6 M, individual female rat
[8] = S605 5 × 10^−3 M + Bradykinin 2.5 × 10^−6 M
[9] = S605 5 × 10^−3 M + Bradykinin 2.5 × 10^−6 M, Rat (female) 211 g, Table 4i
[10] = S605 5 × 10^−3 M + Bradykinin 2.5 × 10^−6 M, individual female rat

## CC(C)C[C@H](NC(=O)[C@H](C)N)C(=O)N[C@@H](CO)C(=O)N1CCC[C@H]1C(=O)N[C@@H](CC(C)C)C(=O)N1CCC[C@H]1C(=O)N[C@@H](CCC(=O)O)C(=O)N[C@H](C(=O)N1CCC[C@H]1C(=O)N1CCC[C@H]1C(=O)O)C(C)C [Peptide S545]
[1]
  maximal drop of blood pressure: 48.5%
  potentiating factor (Bradykinin = 1): 1.49
[2]
  Blood pressure minimal, PM (middle pressure) = (Ps − Pd) × 0.42 + Pd: 39 mg Hg
  Blood pressure minimal, diastolic: 28 mg Hg
  Blood pressure minimal, systolic: 55 mg Hg
  time to reach the baseline value: time to reach the baseline value (t = 31 s)
  ΔP (middle pressure drop): 37 mg Hg
  ΔP (middle pressure drop), percentage: 48.5%
[3]
  maximal drop of blood pressure: 50.5% ± 5.2
  potentiating factor (Bradykinin = 1): 1.61
[4]
  Blood pressure minimal, PM (middle pressure) = (Ps − Pd) × 0.42 + Pd: 39 mg Hg
  Blood pressure minimal, diastolic: 28 mg Hg
  Blood pressure minimal, systolic: 55 mg Hg
  following short overreaction at maximum (systolic/diastolic): following short overreaction at maximum of 106/80
  time to reach the baseline value: time to reach the baseline value (t = 20 s)
  ΔP (middle pressure drop): 43 mg Hg
  ΔP (middle pressure drop), percentage: 52.4%
[5]
  Blood pressure minimal, PM (middle pressure) = (Ps − Pd) × 0.42 + Pd: 40 mg Hg and 34 mg Hg
  Blood pressure minimal, diastolic: 34 mg Hg and 26 mg Hg
  Blood pressure minimal, systolic: 49 mg Hg and 45 mg Hg
  time to reach the baseline value: time to reach the baseline value (t = 46 s); also recorded: time to reach the baseline value (t = 57 s)
  ΔP (middle pressure drop): 32 mg Hg and 41 mg Hg
  ΔP (middle pressure drop), percentage: 44.6% and 54.4%
[6]
  maximal drop of blood pressure: 38.9% ± 8.3
  potentiating factor (Bradykinin = 1): 1.24
[7]
  Blood pressure minimal, PM (middle pressure) = (Ps − Pd) × 0.42 + Pd: 48 mg Hg and 34 mg Hg and 33 mg Hg
  Blood pressure minimal, diastolic: 40 mg Hg and 26 mg Hg and 28 mg Hg
  Blood pressure minimal, systolic: 60 mg Hg and 46 mg Hg and 40 mg Hg
  time to reach the baseline value: time to reach the baseline value (t = 26 s); also recorded: time to reach the baseline value (t = 36 s); also recorded: time to reach the baseline value (t = 23 s)
  ΔP (middle pressure drop): 22 mg Hg and 32 mg Hg and 20 mg Hg
  ΔP (middle pressure drop), percentage: 31.4% and 47.9% and 37.4%
[8]
  maximal drop of blood pressure: 63.8% ± 3.6
  potentiating factor (Bradykinin = 1): 2.04
[9]
  Blood pressure minimal, PM (middle pressure) = (Ps − Pd) × 0.42 + Pd: 44 mg Hg
  Blood pressure minimal, diastolic: 35 mg Hg
  Blood pressure minimal, systolic: 56 mg Hg
  following short overreaction at maximum (systolic/diastolic): following short overreaction at maximum of 141/108
  time to reach the baseline value: time to reach the baseline value (t = 44 s)
  ΔP (middle pressure drop): 70 mg Hg
  ΔP (middle pressure drop), percentage: 61.4%
S605 5 × 10^−3 M + Bradykinin 2.5 × 10^−6 M, after return to baseline
  following short overreaction at maximum of (systolic/diastolic blood pressure): following short overreaction at maximum of 112/84; also recorded: following short overreaction at maximum of 154/112
[10]
  Blood pressure minimal, PM (middle pressure) = (Ps − Pd) × 0.42 + Pd: 24 mg Hg and 40 mg Hg
  Blood pressure minimal, diastolic: 16 mg Hg and 32 mg Hg
  Blood pressure minimal, systolic: 36 mg Hg and 52 mg Hg
  time to reach the baseline value: time to reach the baseline value (t = 36 s); also recorded: time to reach the baseline value (t = 87 s)
  ΔP (middle pressure drop): 52 mg Hg and 66 mg Hg
  ΔP (middle pressure drop), percentage: 68% and 62.1%
Normotensive rats, result in words
  bradykinin-potentiating effect (short-time decrease of blood pressure induced by bradykinin): concentration dependent bradykinin-potentiating
Relative to Captopril
  fold higher molecular concentration in comparison to Captopril required for the bradykinin-potentiating effect in vivo: 10 fold
